From patent publication US11135233B2, “Methods for preventing or mitigating acute allergic responses using human milk oligosaccharides” (Abbott Laboratories, priority 2013, dated 2021)

Assays:
[1] = tested on: skin mast cell response in sensitized mice; assay: Passive cutaneous anaphylaxis (PCA), skin mast cell response, Evans blue dye in ear pinnae; type: in vivo; settings: oral gavage 1 mg per mouse daily for 5 days; anti-DNP IgE i.d., DNP-HSA i.v.; FIG. 3
Procedure: The ability of HMOs to attenuate skin mast cell responses, as measured by the PCA response, was determined in sensitized mice fed 2′-FL, phosphate buffered saline (PBS), lactose, or 6′-SL by detecting the level of dye in ear pinnae indicative of the PCA response.
Mice were treated with 2′-FL, 6′-SL, lactose or PBS by oral gavage (1 mg per mouse) daily for 5 days. On day 4 mice were sensitized by intradermal (i.d.) injection of anti-DNP IgE (10 ng in […] saline) into the right ear pinnae while the left ear was injected with saline alone. Twenty-four hours later, DNP-HSA (10 mg/kg) together with Evans blue (100 mg/kg) was injected intravenously (i.v.). 1 hour following i.v. injection mice were euthanized and ear pinnae collected. Evans blue dye was extracted by incubating the skin samples in DMSO for 24 h at 37° C., and measuring the optical density (O.D.) at 650 nm. Data is presented as the difference in O.D. between the control (left) and sensitized (right) ear.

[2] = tested on: bone marrow mast cells (BMMC); assay: In vitro mast cell degranulation (β-hexosaminidase release) in sensitized BMMC exposed to HMO; type: cell-based, Balb/c mice; settings: anti-DNP IgE sensitized BMMC, HMO at a range of concentrations 30 min prior to DNP-HSA activation; FIG. 1A/1B
Procedure: The ability of HMOs to attenuate mast cell degranulation was tested by exposing sensitized bone marrow mast cells (BMMC) to either 2′-FL or 6′-SL.
BMMC from female Balb/c mice were obtained by culturing the bone marrow cells in enriched RPMI-1640 medium with 10% pokeweed mitogen-stimulated spleen as a source of mast cell growth factors for 3 weeks. The cells were kept at a concentration of 0.2×10^5 cells/ml in a 5% CO2, 37° C. environment, where the medium was changed weekly. BMMC were used for experiments after 3-4 weeks of culture (>95% mast cells). BMMC were sensitized with 1 ug/ml monoclonal anti-dinitrophenyl (DNP) IgE clone and seeded into 96-well plates at a final concentration of 1×10^6 cells/ml. […] Cell supernatants were harvested 30 min after DNP-HSA stimulation and stored at −20° C. until analyzed. […] Results are expressed as a percentage of total β-hexosaminidase. […]
This assay was conducted to assess in-vitro antigen-induced degranulation of mast cells. […] The release of β-hexosaminidase from mast cells was measured from the supernatant. […] The reaction was stopped with 100 μl citrate buffer pH 4.5 and read by using CytoFluor 2350 fluorescent spectrophotometer at 450 nm (excitation 356 nm). B-hexosaminidase release was presented as a percentage of the total B-hexosaminidase release determined by cell lysis with 1×triton-X.

OVA-sensitized mice [3] = assay: OVA-induced food allergy model: diarrhea score; type: in vivo; settings: 200 ul of 5 mg/ml in PBS daily oral gavage day 27 to 49; versus untreated or lactose treated OVA-sensitized mice; FIG. 4A/4B
Procedure: (§1) The ability of HMOs to attenuate the gastrointestinal mast cell response was determined by measuring the amount of diarrhea, change in body temperature, and change in mouse mast cell protease-1 (mMCP-1) levels in HMO treated mice relative to untreated and lactose treated control mice.
(§2) The OVA-induced food allergy model was modified from Yamaki and Yoshino (Allergy. 2012; 67:1259-70). Mice were sensitized with 50 μg of OVA (Sigma, St. Louis, Mo.) and 2 mg of alum (Sigma, St. Louis, Mo.) in 200 μl of Phosphate Saline Buffer (PBS) on day 0 and 14. HMO (200 ul of 5 mg/ml in PBS) treatments (2′-FL or 6′-SL) were administrated daily via oral gavage from day 27 to day 49. Mice were orally challenged with 50 μg of OVA every 3 days (Days: 28, 31, 34, 37, 40, 43, 46 and 49). On challenge days treatments were given 1 hour prior to OVA challenge. On day 49, serum, spleen and intestinal samples, were obtained. Non-sensitized PBS challenged mice served as negative controls.
Diarrhea symptoms were scored by visually monitoring mice for 60 minutes after challenge as follows: 0, normal stools; 1, a few wet an unformed stools; 2, a number of wet an unformed stools with moderate perianal staining of the coat; 3, severe, watery stool with severe perianal staining of the coat.

OVA-sensitized mice [4] = assay: OVA-induced food allergy model: rectal temperature after final antigen challenge; type: in vivo; settings: 200 ul of 5 mg/ml in PBS daily oral gavage; 1 hour following final OVA challenge; versus untreated or lactose treated; FIG. 5A/5B
Procedure: as §1, §2
Rectal temperature was monitored for 1 hour following the final antigen challenge.

[5] = tested on: mouse mast cell protease-1 (mMCP-1); assay: OVA-induced food allergy model: serum mMCP-1 concentration; type: in vivo, mice; settings: 200 ul of 5 mg/ml in PBS daily oral gavage; day 49; versus untreated and lactose treated OVA-sensitized controls; FIG. 6
Procedure: as §1, §2
Following body temperature measurements, mice were euthanized and serum mMCP-1 concentration was determined.

With `OC[C@H]1O[C@@H](O[C@H]2[C@H](O)[C@@H](O)C(O)O[C@@H]2CO)[C@H](O)[C@@H](O)[C@H]1O` (stereo partly drawn) [lactose, reference compound] the “difference in Evans blue dye (O.D. at 650 nm) between control (left) and sensitized (right) ear” value [1] was “greater difference in dye detected”.
With `CC(=O)N[C@H]1[C@H]([C@H](O)[C@H](O)CO)O[C@@](OC[C@H]2O[C@@H](O[C@H]3[C@H](O)[C@@H](O)[C@H](O)O[C@@H]3CO)[C@H](O)[C@@H](O)[C@H]2O)(C(=O)O)C[C@@H]1O` [6′-SL, 6′-sialyllactose] the “β-hexosaminidase (β-Hex) activity relative to controls (percentage of total β-hexosaminidase)” value [2] was “significant decrease”, the “difference in Evans blue dye (O.D. at 650 nm) between control (left) and sensitized (right) ear” value [1] was “greater difference in dye detected between right and left ears in PBS and lactose-treated mice than in mice treated with 2′-FL or 6′-SL” and the “stool (diarrhea) score” value (OVA-sensitized mice [3]) was “but not 6′-SL, Significantly Decreases Diarrhea Symptoms”. For the same compound, the “decline in rectal temperature” value (OVA-sensitized mice [4]) was “but not 6′-SL, Mitigates the Decline in Rectal Temperature” and the “serum mMCP-1 levels” value [5] was “but not 6′-SL, produced a significant decrease”.
